Common to all, as to assay type: in vivo, mouse
Series [1] concerns formalin-injected mice. In words: Formalin-induced chronic pain-like state (CPLS): persistent hypersensitivity to heat and mechanical stimuli.
The test system of series [2] is formalin-injected mice. Nature of the series: Formalin-induced paw edema. The protocol: Paw edema was measured with a digital caliper (Fisher Scientific, USA) and is expressed as the difference (A paw thickness, mm) between ipsilateral and contralateral paws.
The test system of series [3] is formalin-injected mice. Nature of the series: Elevated plus maze test (anxiety-like behavior) after formalin. To be noted: ARN19702 30 mg-kg^−1 IP once daily for 3 days starting 24 h after formalin; PFD7. The protocol:
Elevated plus maze test: We placed each mouse in the central platform of the maze, facing the open arm opposite to the experimenter, and behavior was recorded using the Debut video capture software (NCH Software, Canberra, Australia). A blinded observer measured the amount of time spent in the open and closed arms, as well as the number of open and closed arm entries. The open arms of the maze were illuminated at 150-170 lux and the closed arms at 40-50 lux.
Elevated plus maze test: We placed each mouse in the central platform of the maze, facing the open arm opposite to the experimenter, and behavior was recorded using the Debut video capture software (NCH Software, Canberra, Australia). A blinded observer measured the amount of time spent in the open and closed arms, as well as the number of open and closed arm entries. The open arms of the maze were illuminated at 150-170 lux and the closed arms at 40-50 lux. The anxiety index was calculated as follows: […]

The subject of series [4] is PEA levels in ipsilateral lumbar spinal cord (L4-L6). In words: PEA quantification in lumbar spinal cord (LC/MS-MS). To be noted: post-formalin ARN19702 30 mg-kg^−1 IP on PFD2-4; 2 h after administration. How it is done:
Lipid extraction: Lumbar L4-L6 spinal cord fragments (˜15 mg each) were transferred into 2 ml Precellys® soft tissue tubes (Bertin Instruments, France) and diluted with ice-cold acetone (1 ml) containing [2H4]-PEA (50 μl, 100 nM) Samples were homogenized at 4° C., 6000 rpm, 15 s/cycle for 2 cycles with 20 s pause in between cycles. Supernatants were transferred into 8-ml glass vials and dried under nitrogen. Chloroform/methanol (2/1, vol, 3 ml) and water (1 ml) were added to the samples, which were then stirred vigorously and centrifuged at 830×g for 15 min at 4° C. The lower (organic) phases were collected and upper phases were extracted again with chloroform (2 ml) and combined with the previous extract. Extracts were dried under nitrogen, reconstituted in acetonitrile (0.1 ml), transferred to deactivated glass inserts and placed inside amber glass vials for liquid chromatography/tandem mass spectrometry (LC/MS-MS) analyses.
PEA quantification: PEA was fractionated using a 1260 series LC system (Agilent Technologies, Santa Clara, CA) coupled to a 6460C triple-quadrupole mass spectrometric detector (MSD; Agilent). […] The MSD was operated in the positive electrospray ionization mode, and analytes were quantified by multiple reaction monitoring. […]

Series [5] relates to spinal-cord transcription. In words: RNA sequencing and metabolomic analysis of L4-L6 spinal cord. To be noted: systemic ARN19702 administration on PFD2-3. How it is done: RNA sequencing and bioinformatics analysis: We extracted total RNA with the RNeasy Mini Kit (Qiagen). Samples with RNA integrity number ≥8.5 were kept for library construction. cDNA synthesis, amplification, library construction, and sequencing were performed at Novogene (Bejing, China) using the Illumina NovaSeq platform with paired-end 150 bp (PE 150) sequencing strategy. Downstream analysis was performed using a combination of programs including STAR, HTseq, Cufflink and Novogene's wrapped scripts. Alignments were parsed using the STAR program and differential expressions were determined using DESeq2/edgeR. Gene Ontology (GO) and Kyoto Encyclopedia of Genes and Genomes (KEGG) enrichment were implemented using the ClusterProfiler.
Metabolomic analysis: Metabolomics analyses were performed at the West Coast Metabolomics Center of the University of California Davis, as described^55. Briefly, frozen lumbar spinal cord (L4-L6) fragments (˜5 mg) were homogenized in Eppendorf tubes (2 ml) for 2 min using metal spheres ([…] diameter) in a MM300 mill (Retsch, Germany). A mixture of isopropanol/acetonitrile/water (3/3/2, vol) was added to the grounded tissue (1 ml per 20 mg), stirred for 10 s and shaken at 4° C. for 5 min. […]

A further series relates to naïve animals. In words: Baseline nociceptive thresholds in naïve animals. To be noted: ARN19702 30 mg-kg^−1 IP, ARN16186 10 mg-kg^−1 IP.
Setting [6] is: pretreatment, ARN16186 10 mg-kg^−1 IP, ARN19702 30 mg-kg^−1 IP, wild-type mice, 1% formalin.

Structures are written as SMILES.

Regarding `CCS(=O)(=O)c1ccccc1C(=O)N1CCN(c2nc3ccc(F)cc3s2)C[C@@H]1C` [ARN19702], the results for the “protection from CPLS consolidation” value in the series with formalin-injected mice [1] (ARN19702 30 mg-kg^−1 IP given on PFD1 or PFD5 to PFD9), in the series on formalin-injected mice [1] (ARN19702 30 mg-kg^−1 IP given on PFD2) and in the series on formalin-injected mice [1] (ARN19702 30 mg-kg^−1 IP given once on PFD3 or PFD4) were “no such effect”, “partially effective” and “full protection”, respectively. In addition, in the series with formalin-injected mice [1] (ARN19702 30 mg-kg^−1 IP once daily PFD1 to PFD3), the “sex dependence of the protective effects (contralateral hyperalgesia in female mice)” value was “not sex-dependent”. Moreover, the CPLS consolidation result in the series with formalin-injected mice [1] (ARN19702 30 mg-kg^−1 IP once daily for 3 consecutive days starting 24 h after formalin, male mice) is recorded as “effectively halted”. Further, the “evoked hypersensitivity (sensory responses)” value in the series with formalin-injected mice [1] (ARN19702 30 mg-kg^−1 IP once daily for 3 days starting 24 h after formalin, male mice) is recorded as “normalizing”. Besides, the “pain behaviors (acute effect)” value in the series with formalin-injected mice [1] (ARN19702 30 mg-kg^−1 IP, at all time points PFD1 to PFD9) is listed as “temporarily attenuated”. Besides, the “transition to CPLS in PPAR-α-null mice” value in the series on formalin-injected mice [1] (ARN19702 30 mg-kg^−1 IP, Ppara^−/− mice, PFD14) was “unaffected”. Besides, in the series on formalin-injected mice [1] (post-injury intrathecal infusion, 30 ng, 5 μL, at PFD2 and PFD4, assessed PFD14), the “persistent hypersensitivity (CPLS) elicited by formalin” value was “stopped”. In addition, the “NAAA-null phenotype (weakened nocifensive response, no inflammation or persistent hypersensitivity after formalin)” value in the series on formalin-injected mice [1] (pretreatment of wild-type mice, ARN19702 30 mg-kg^−1 IP, ARN16186 10 mg-kg^−1 IP) is listed as “recapitulated”. Moreover, the “persistent contralateral hyperalgesia (PFD14)” value with formalin-injected mice [1] (setting [6]) is reported as “prevents”. In the series on formalin-injected mice [2] (setting [6]), the “paw edema (PFD14)” value is recorded as “prevents”. In addition, the paw edema result in the series with formalin-injected mice [2] (three-day ARN19702 regimen (30 mg-kg^−1 IP) after formalin, PFD14) is recorded as “no detectable influence”. Also, the anxiety-like behavior result with formalin-injected mice [3] is listed as “normalizing”. Also, in series [4], the “PEA levels in ipsilateral lumbar spinal cord (L4-L6)” value is “normalized”. In addition, the “transcriptional and metabolic changes in L4-L6 spinal cord on the following day” value in series [5] is recorded as “prevented the appearance”. For the same compound, in the series on naïve animals, the baseline nociceptive thresholds result is listed as “Neither compound affected”.
